Results taken from ChEMBL document CHEMBL4184210, “Optimization of novel monobactams with activity against carbapenem-resistant Enterobacteriaceae - Identification of LYS228” (Bioorg Med Chem Lett, 2018).
Values after ≈ are worked out from the molar mass of the structure shown.

Key:
Escherichia coli [1] = assay: microbe, parasite or virus in culture
Description: Antimicrobial activity against Escherichia coli expressing beta-lactamase KPC-3 by CLSI broth microdilution method

Escherichia coli [2] = assay: microbe, parasite or virus in culture; remark: listed apart in the source
Description: Antimicrobial activity against Escherichia coli expressing beta-lactamase SPM-1 by CLSI broth microdilution method

Escherichia coli [3] = assay: Antimicrobial activity against Escherichia coli expressing beta-lactamase NDM-1 by CLSI broth microdilution method; format: functional
Escherichia coli [4] = assay: microbe, parasite or virus in culture; remark: listed apart in the source
Description: Antimicrobial activity against Escherichia coli expressing beta-lactamase Oxa-23 by CLSI broth microdilution method

Escherichia coli [5] = assay: microbe, parasite or virus in culture; remark: listed apart in the source
Description: Antimicrobial activity against Escherichia coli expressing beta-lactamase AmpC by CLSI broth microdilution method

Escherichia coli [6] = assay: microbe, parasite or virus in culture; remark: listed apart in the source
Description: Antimicrobial activity against Escherichia coli expressing beta-lactamase KPC-4 by CLSI broth microdilution method

Escherichia coli [7] = assay: microbe, parasite or virus in culture; remark: listed apart in the source
Description: Antimicrobial activity against Escherichia coli expressing beta-lactamase PER-4 by CLSI broth microdilution method

Escherichia coli [8] = assay: microbe, parasite or virus in culture; remark: listed apart in the source
Description: Antimicrobial activity against Escherichia coli expressing beta-lactamase SME-1 by CLSI broth microdilution method

Escherichia coli [9] = assay: Antimicrobial activity against Escherichia coli expressing beta-lactamase NDM-5 by CLSI broth microdilution method; format: functional
Escherichia coli [10] = assay: microbe, parasite or virus in culture; remark: listed apart in the source
Description: Antimicrobial activity against Escherichia coli expressing beta-lactamase GIM-1 by CLSI broth microdilution method

Escherichia coli [11] = assay: microbe, parasite or virus in culture; remark: listed apart in the source
Description: Antimicrobial activity against Escherichia coli expressing beta-lactamase GES-1 by CLSI broth microdilution method

Escherichia coli [12] = assay: Antimicrobial activity against Escherichia coli expressing beta-lactamase VEB-1 by CLSI broth microdilution method; format: functional
Pseudomonas aeruginosa [13] = assay: Antimicrobial activity against Pseudomonas aeruginosa expressing delta-mexB/delta-mexXY/delta-mexCD and delta-ampC mutant by CLSI broth microdilution method; format: functional
Escherichia coli [14] = assay: microbe, parasite or virus in culture; remark: listed apart in the source
Description: Antimicrobial activity against Escherichia coli expressing beta-lactamase Oxa-18 by CLSI broth microdilution method

Escherichia coli [15] = assay: microbe, parasite or virus in culture; remark: listed apart in the source
Description: Antimicrobial activity against Escherichia coli expressing beta-lactamase VIM-1 by CLSI broth microdilution method

Escherichia coli [16] = assay: Antimicrobial activity against Escherichia coli expressing beta-lactamase TEM-1 by CLSI broth microdilution method; format: functional
Pseudomonas aeruginosa [17] = assay: Antimicrobial activity against Pseudomonas aeruginosa expressing nalB/delta-mexXY/delta-mexCDoprJ/delta-ampC by CLSI broth microdilution method; format: functional
Escherichia coli [18] = assay: microbe, parasite or virus in culture; remark: listed apart in the source
Description: Antimicrobial activity against Escherichia coli expressing beta-lactamase SHV-12 by CLSI broth microdilution method

Escherichia coli [19] = assay: microbe, parasite or virus in culture; remark: listed apart in the source
Description: Antimicrobial activity against Escherichia coli expressing beta-lactamase Oxa-181 by CLSI broth microdilution method

Escherichia coli [20] = assay: microbe, parasite or virus in culture; remark: listed apart in the source
Description: Antimicrobial activity against Escherichia coli expressing beta-lactamase Oxa-10 by CLSI broth microdilution method

Escherichia coli [21] = assay: microbe, parasite or virus in culture; remark: listed apart in the source
Description: Antimicrobial activity against Escherichia coli expressing beta-lactamase CTXM-15 by CLSI broth microdilution method

Mus musculus = assay: Toxicity in CD1 mouse assessed as induction of convulsion at 100 mg/kg, icv measured 1 hr after post dose; format: organism-based; conditions: in vivo, icv_or_intrathecal
[22] = Drug excretion in dog assessed as unchanged parent drug level at 10 mg/kg, iv; format: ADME, organism-based, Canis lupus familiaris; conditions: in vivo, read-out: Drug excretion
[23] = Half life in mouse at 10 mg/kg, iv; format: ADME, organism-based; conditions: in vivo
[24] = Stability assessed as assessed as Escherichia coli beta-lactamase KPC-2-mediated compound hydrolysis by measuring molar enthalpy of hydrolysis at 1 mM by isothermal titration calorimetry; format: ADME; conditions: 1000 µM
in vitro [25] = conditions: rat, plasma
Description: Protein binding in rat plasma

[26] = Volume of distribution in rat at 10 mg/kg, iv; format: ADME, organism-based; conditions: in vivo
[27] = Drug excretion in rat assessed as unchanged parent drug level at 10 mg/kg, iv; format: ADME, organism-based; conditions: in vivo, read-out: Drug excretion
[28] = AUC in mouse at 10 mg/kg, iv; format: ADME, organism-based; conditions: in vivo
in vitro [29] = conditions: mouse, plasma
Description: Protein binding in mouse plasma

in vitro [30] = conditions: human, plasma
Description: Protein binding in human plasma

[31] = Half life in rat at 10 mg/kg, iv; format: ADME, organism-based; conditions: in vivo
[32] = AUC in dog at 10 mg/kg, iv; format: ADME, organism-based, Canis lupus familiaris; conditions: in vivo
[33] = Volume of distribution in dog at 10 mg/kg, iv; format: ADME, organism-based, Canis lupus familiaris; conditions: in vivo
[34] = Clearance in mouse at 10 mg/kg, iv; format: ADME, organism-based; conditions: in vivo
[35] = Half life in dog at 10 mg/kg, iv; format: ADME, organism-based, Canis lupus familiaris; conditions: in vivo
in vitro [36] = conditions: dog, plasma
Description: Protein binding in dog plasma

Klebsiella pneumoniae [37] = assay: Antimicrobial activity against Klebsiella pneumoniae expressing beta-lactamase NDM-1 infected in neutropenic mouse thigh infection model assessed as compound dose causing 1 log10 CFU reduction in bacterial load dosed subcutaneously every 4 hrs; format: functional
Klebsiella pneumoniae [38] = assay: Antimicrobial activity against Klebsiella pneumoniae expressing beta-lactamase NDM-1 infected in neutropenic mouse thigh infection model assessed as fT>MIC for causing 1 log10 CFU reduction in bacterial load dosed subcutaneously every 4 hrs; format: functional
[39] = Volume of distribution in mouse at 10 mg/kg, iv; format: ADME, organism-based; conditions: in vivo
[40] = Clearance in rat at 10 mg/kg, iv; format: ADME, organism-based; conditions: in vivo
[41] = Clearance in dog at 10 mg/kg, iv; format: ADME, organism-based, Canis lupus familiaris; conditions: in vivo
Klebsiella pneumoniae [42] = assay: Antimicrobial activity against Klebsiella pneumoniae expressing beta-lactamase NDM-1 by CLSI broth microdilution method; format: functional
[43] = AUC in rat at 10 mg/kg, iv; format: ADME, organism-based; conditions: in vivo

Structure (SMILES): N=C(N)NCc1cnn(C[C@@H]2[C@H](NC(=O)/C(=N\OC3(C(=O)O)CC3)c3csc(N)n3)C(=O)N2S(=O)(=O)O)n1 (stereo in doubt)
- MIC (Escherichia coli [1]): 0.125 µg/mL (≈ 0.219 µM)
- MIC (Escherichia coli [2]): 0.06 µg/mL (≈ 0.105 µM)
- MIC (Escherichia coli [3]): ≤ 0.06 µg/mL
- MIC (Escherichia coli [4]): 0.25 µg/mL (≈ 0.437 µM)
- MIC (Escherichia coli [5]): 0.5 µg/mL (≈ 0.875 µM)
- MIC (Escherichia coli [6]): 4 µg/mL (≈ 7 µM)
- MIC (Escherichia coli [7]): 4 µg/mL (≈ 7 µM)
- MIC (Escherichia coli [8]): 0.06 µg/mL (≈ 0.105 µM)
- MIC (Escherichia coli [9]): 0.25 µg/mL (≈ 0.437 µM)
- MIC (Escherichia coli [10]): 0.125 µg/mL (≈ 0.219 µM)
- MIC (Escherichia coli [11]): 0.06 µg/mL (≈ 0.105 µM)
- MIC (Escherichia coli [12]): 16 µg/mL (≈ 28 µM)
- MIC (Pseudomonas aeruginosa [13]): 0.25 µg/mL (≈ 0.437 µM)
- MIC (Escherichia coli [14]): 0.5 µg/mL (≈ 0.875 µM)
- MIC (Escherichia coli [15]): 0.06 µg/mL (≈ 0.105 µM)
- MIC (Escherichia coli [16]): 0.125 µg/mL (≈ 0.219 µM)
- MIC (Pseudomonas aeruginosa [17]): 16 µg/mL (≈ 28 µM)
- MIC (Escherichia coli [18]): 0.25 µg/mL (≈ 0.437 µM)
- MIC (Escherichia coli [19]): 0.125 µg/mL (≈ 0.219 µM)
- MIC (Escherichia coli [20]): 0.25 µg/mL (≈ 0.437 µM)
- MIC (Escherichia coli [21]): 0.125 µg/mL (≈ 0.219 µM)

Structure (SMILES): NC[C@@H]1CN(C[C@@H]2[C@H](NC(=O)/C(=N\OC3(C(=O)O)CC3)c3csc(N)n3)C(=O)N2S(=O)(=O)O)C(=O)O1 (stereo in doubt)
- MIC (Escherichia coli [1]): 0.125 µg/mL (≈ 0.228 µM)
- MIC (Escherichia coli [2]): 0.06 µg/mL (≈ 0.11 µM)
- MIC (Escherichia coli [3]): 0.125 µg/mL (≈ 0.228 µM)
- MIC (Escherichia coli [4]): ≤ 0.06 µg/mL
- MIC (Escherichia coli [5]): 0.125 µg/mL (≈ 0.228 µM)
- MIC (Escherichia coli [6]): 1 µg/mL (≈ 1.83 µM)
- MIC (Escherichia coli [7]): > 32 µg/mL
- Activity (Mus musculus): Toxic
- MIC (Escherichia coli [8]): 0.06 µg/mL (≈ 0.11 µM)
- MIC (Escherichia coli [9]): 0.25 µg/mL (≈ 0.457 µM)
- MIC (Escherichia coli [10]): 0.03 µg/mL (≈ 0.0548 µM)
- MIC (Escherichia coli [11]): 0.06 µg/mL (≈ 0.11 µM)
- MIC (Escherichia coli [12]): 32 µg/mL (≈ 58.4 µM)
- MIC (Pseudomonas aeruginosa [13]): 16 µg/mL (≈ 29.2 µM)
- MIC (Escherichia coli [14]): 0.5 µg/mL (≈ 0.913 µM)
- MIC (Escherichia coli [15]): 0.06 µg/mL (≈ 0.11 µM)
- MIC (Escherichia coli [16]): 0.125 µg/mL (≈ 0.228 µM)
- MIC (Pseudomonas aeruginosa [17]): > 64 µg/mL
- MIC (Escherichia coli [18]): 0.25 µg/mL (≈ 0.457 µM)
- MIC (Escherichia coli [19]): 0.25 µg/mL (≈ 0.457 µM)
- MIC (Escherichia coli [20]): 0.125 µg/mL (≈ 0.228 µM)
- MIC (Escherichia coli [21]): 0.125 µg/mL (≈ 0.228 µM)

Structure (SMILES): N=C(N)NCc1cn(C[C@@H]2[C@H](NC(=O)/C(=N\OC3(C(=O)O)CC3)c3csc(N)n3)C(=O)N2S(=O)(=O)O)nn1 (stereo in doubt)
- MIC (Escherichia coli [1]): 0.125 µg/mL (≈ 0.219 µM)
- MIC (Escherichia coli [2]): 0.125 µg/mL (≈ 0.219 µM)
- MIC (Escherichia coli [3]): 0.125 µg/mL (≈ 0.219 µM)
- MIC (Escherichia coli [4]): 0.25 µg/mL (≈ 0.437 µM)
- MIC (Escherichia coli [5]): 0.125 µg/mL (≈ 0.219 µM)
- MIC (Escherichia coli [6]): 2 µg/mL (≈ 3.5 µM)
- MIC (Escherichia coli [7]): 8 µg/mL (≈ 14 µM)
- MIC (Escherichia coli [8]): 0.06 µg/mL (≈ 0.105 µM)
- MIC (Escherichia coli [9]): 0.25 µg/mL (≈ 0.437 µM)
- MIC (Escherichia coli [10]): 0.03 µg/mL (≈ 0.0525 µM)
- MIC (Escherichia coli [11]): 0.06 µg/mL (≈ 0.105 µM)
- MIC (Escherichia coli [12]): 16 µg/mL (≈ 28 µM)
- MIC (Escherichia coli [14]): 1 µg/mL (≈ 1.75 µM)
- MIC (Escherichia coli [15]): 0.125 µg/mL (≈ 0.219 µM)
- MIC (Escherichia coli [16]): 0.125 µg/mL (≈ 0.219 µM)
- MIC (Escherichia coli [18]): 0.5 µg/mL (≈ 0.875 µM)
- MIC (Escherichia coli [19]): 0.25 µg/mL (≈ 0.437 µM)
- MIC (Escherichia coli [20]): 0.25 µg/mL (≈ 0.437 µM)
- MIC (Escherichia coli [21]): 0.125 µg/mL (≈ 0.219 µM)

Structure (SMILES): Nc1nc(/C(=N/OC2(C(=O)O)CC2)C(=O)N[C@@H]2C(=O)N(S(=O)(=O)O)[C@@H]2CN2CCOC2=O)cs1 (stereo in doubt) [ANCREMONAM]
- dose excreted [22]: 34%
- MIC (Escherichia coli [1]): 0.25 µg/mL (≈ 0.482 µM)
- half-life [23]: 18 min
- Stability [24]: Stable
- MIC (Escherichia coli [2]): 0.125 µg/mL (≈ 0.241 µM)
- fraction unbound (in vitro [25]): 0.53
- Vd [26]: 0.3 L/kg
- MIC (Escherichia coli [3]): 0.125 µg/mL (≈ 0.241 µM)
- MIC (Escherichia coli [4]): 0.125 µg/mL (≈ 0.241 µM)
- MIC (Escherichia coli [5]): 0.25 µg/mL (≈ 0.482 µM)
- dose excreted [27]: 30%
- AUC [28]: 10000 ng·h/mL
- MIC (Escherichia coli [6]): 0.5 µg/mL (≈ 0.964 µM)
- MIC (Escherichia coli [7]): 8 µg/mL (≈ 15.4 µM)
- Activity (Mus musculus): Non-Toxic
- fraction unbound (in vitro [29]): 0.74
- fraction unbound (in vitro [30]): 0.87
- MIC (Escherichia coli [8]): 0.125 µg/mL (≈ 0.241 µM)
- MIC (Escherichia coli [9]): 0.125 µg/mL (≈ 0.241 µM)
- MIC (Escherichia coli [10]): 0.125 µg/mL (≈ 0.241 µM)
- half-life [31]: 36 min
- MIC (Escherichia coli [11]): 0.125 µg/mL (≈ 0.241 µM)
- AUC [32]: 13000 ng·h/mL
- MIC (Escherichia coli [12]): 32 µg/mL (≈ 61.7 µM)
- MIC (Pseudomonas aeruginosa [13]): 1 µg/mL (≈ 1.93 µM)
- Vd [33]: 0.2 L/kg
- clearance [34]: 16 mL/min/kg
- half-life [35]: 48 min
- MIC (Escherichia coli [14]): 0.5 µg/mL (≈ 0.964 µM)
- fraction unbound (in vitro [36]): 0.76
- Activity (Klebsiella pneumoniae [37]): 1590 mg/kg/day
- MIC (Escherichia coli [15]): 0.125 µg/mL (≈ 0.241 µM)
- fT>MIC (Klebsiella pneumoniae [38]): 65%
- MIC (Escherichia coli [16]): 0.25 µg/mL (≈ 0.482 µM)
- MIC (Pseudomonas aeruginosa [17]): ≥ 64 µg/mL
- MIC (Escherichia coli [18]): 0.5 µg/mL (≈ 0.964 µM)
- Vd [39]: 0.3 L/kg
- clearance [40]: 9 mL/min/kg
- clearance [41]: 4 mL/min/kg
- MIC (Klebsiella pneumoniae [42]): 1 µg/mL (≈ 1.93 µM)
- MIC (Escherichia coli [19]): 0.125 µg/mL (≈ 0.241 µM)
- AUC [43]: 19000 ng·h/mL
- MIC (Escherichia coli [20]): 0.125 µg/mL (≈ 0.241 µM)
- MIC (Escherichia coli [21]): 0.125 µg/mL (≈ 0.241 µM)
